# According to ChEMBL document CHEMBL1201862, “PubChem BioAssay data set” (2004):
#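 Tested at 5 concentrations; 48 h exposure; 96-well plates; endpoints linearly interpolated, else capped at highest concentration. GI50 marks 50% less growth.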 The source made the active and inactive calls. No stated cut-off is given here; in the data, active = GI50 up to about 1.1 µM and inactive = higher.
# Experiments:
# Experiment in all cases: NCI tumour cell line growth inhibition, 48 h
# [1] = test system: IGROV-1
# [2] = test system: Malme-3M
# [3] = test system: NCI/ADR-RES
# [4] = test system: M14
# [5] = test system: K562
# [6] = test system: SK-MEL-5
# [7] = test system: MDA-N
# [8] = test system: HT-29
# [9] = test system: HOP-92
# [10] = test system: SN12C
# [11] = test system: RXF 393
# [12] = test system: UACC-257
# [13] = test system: UO-31
# [14] = test system: HOP-62
# [15] = test system: T47D
# [16] = test system: MCF7
# [17] = test system: HL-60
# [18] = test system: SF-539
# [19] = test system: PC-3
# [20] = test system: ACHN
# [21] = test system: U-251
# [22] = test system: SR
# [23] = test system: HCC 2998
# [24] = test system: Hs-578T
# [25] = test system: DU-145
# [26] = test system: KM12
# [27] = test system: SW-620
# [28] = test system: HCT-15
# [29] = test system: SK-OV-3
# [30] = test system: SF-268
# [31] = test system: OVCAR-4
# [32] = test system: SNB-75
# [33] = test system: SK-MEL-28
# [34] = test system: BT-549
# [35] = test system: COLO 205
# [36] = test system: OVCAR-8
# [37] = test system: UACC-62
# [38] = test system: NCI-H522
# [39] = test system: OVCAR-3
# [40] = test system: MOLT-4
# [41] = test system: MDA-MB-435
# [42] = test system: SK-MEL-2
# [43] = test system: NCI-H460
# [44] = test system: EKVX
# [45] = test system: HCT-116
# [46] = test system: A549
# [47] = test system: 786-0
# [48] = test system: SF-295
# [49] = test system: TK-10
# [50] = test system: NCI-H226
# [51] = test system: CCRF-CEM
# [52] = test system: RPMI-8226
# [53] = test system: OVCAR-5
# [54] = test system: LOX IMVI
# [55] = test system: NCI-H23
# [56] = test system: MDA-MB-231
# [57] = test system: CAKI-1
# [58] = test system: SNB-19
compound,measurement,setting,value
Cc1cc(C)nc(NS(=O)(=O)c2ccc(NNC(=O)c3cccc4c(NNc5ccc(S(=O)(=O)Nc6nc(C)cc(C)n6)cc5)c5ccccc5nc34)cc2)n1,GI50,[1],20 µM (inactive)
same,GI50,[2],20.7 µM (inactive)
same,GI50,[3],68.5 µM (inactive)
same,GI50,[4],17.5 µM (inactive)
same,GI50,[5],22.2 µM (inactive)
same,GI50,[6],16.9 µM (inactive)
same,GI50,[7],20.9 µM (inactive)
same,GI50,[8],21.8 µM (inactive)
same,GI50,[9],17.8 µM (inactive)
same,GI50,[10],31.1 µM (inactive)
same,GI50,[11],20.8 µM (inactive)
same,GI50,[12],31 µM (inactive)
same,GI50,[13],18.9 µM (inactive)
same,GI50,[14],27.8 µM (inactive)
same,GI50,[15],19.5 µM (inactive)
same,GI50,[16],31.5 µM (inactive)
same,GI50,[17],20.7 µM (inactive)
same,GI50,[18],20.3 µM (inactive)
same,GI50,[19],24.3 µM (inactive)
same,GI50,[20],17.3 µM (inactive)
same,GI50,[21],22.9 µM (inactive)
same,GI50,[22],20.5 µM (inactive)
same,GI50,[23],21.4 µM (inactive)
same,GI50,[24],23.4 µM (inactive)
same,GI50,[25],19.4 µM (inactive)
same,GI50,[26],17.8 µM (inactive)
same,GI50,[27],22.1 µM (inactive)
same,GI50,[28],19.7 µM
same,GI50,[29],25.3 µM (inactive)
same,GI50,[30],20.7 µM (inactive)
same,GI50,[31],23.3 µM (inactive)
same,GI50,[32],17.7 µM (inactive)
same,GI50,[33],23.4 µM (inactive)
same,GI50,[34],24.7 µM (inactive)
same,GI50,[35],20.9 µM (inactive)
same,GI50,[36],20.6 µM (inactive)
same,GI50,[37],18.5 µM (inactive)
same,GI50,[38],18.1 µM (inactive)
same,GI50,[39],28.3 µM (inactive)
same,GI50,[40],26 µM (inactive)
same,GI50,[41],20.9 µM (inactive)
same,GI50,[42],23.6 µM (inactive)
same,GI50,[43],20.6 µM (inactive)
same,GI50,[44],18.7 µM (inactive)
same,GI50,[45],22.9 µM (inactive)
same,GI50,[46],30.5 µM (inactive)
same,GI50,[47],21.8 µM (inactive)
same,GI50,[48],31.8 µM (inactive)
same,GI50,[49],35.5 µM (inactive)
same,GI50,[50],25.2 µM (inactive)
same,GI50,[51],18.5 µM (inactive)
same,GI50,[52],25.6 µM (inactive)
same,GI50,[53],20.1 µM (inactive)
same,GI50,[54],17.2 µM (inactive)
same,GI50,[55],22.8 µM (inactive)
same,GI50,[56],14.6 µM (inactive)
same,GI50,[57],18.8 µM (inactive)
same,GI50,[58],24.5 µM (inactive)
